Data reported in the supplement of paper PMC4628005.

Assays:
Details in all cases: drug exposure time: 96 h
[1] = compound: C=CCNC1=C2C[C@@H](C)C[C@H](OC)[C@H](O)[C@@H](C)/C=C(\C)[C@H](OC(N)=O)[C@@H](OC)/C=C\C=C(/C)C(=O)NC(=CC1=O)C2=O [17-AAG]
Procedure: (§1)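 Same SRB 96 h IC50 screen on breast cancer cell lines (RPMI 1640 + 10% FBS, collagen I-coated 96-well plates, triplicates, 12 dilutions), for drugs with a different dose range: Bortezomib up to 2e-5 M; Sirolimus and 17-AAG up to 2e-6 M. Sirolimus values at the 2e-6 M top dose are censored.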

[2] = compound: CC(C)C[C@H](NC(=O)[C@H](Cc1ccccc1)NC(=O)c1cnccn1)B(O)O [Bortezomib]
Procedure: as §1

[3] = compound: CO[C@H]1C[C@@H]2CC[C@@H](C)[C@@](O)(O2)C(=O)C(=O)N2CCCC[C@H]2C(=O)O[C@H]([C@H](C)C[C@@H]2CC[C@@H](O)[C@H](OC)C2)CC(=O)[C@H](C)/C=C(\C)[C@@H](O)[C@@H](OC)C(=O)[C@H](C)C[C@H](C)/C=C/C=C/C=C/1C [Sirolimus]
Procedure: as §1

[4] = compound: Cn1cc(CNCC2CCN(c3ncc(C(=O)NO)cn3)CC2)c2ccccc21 [Quisinostat]
Procedure: (§2)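 Breast cancer cell lines were grown in RPMI 1640 with 10% FBS on collagen I-coated 96-well plates and treated for 96 h (from 24 h after seeding) with 12 dilutions per drug, in triplicate. Growth was read by sulforhodamine B total-protein staining (absorbance 570 nm) relative to diluent control, and IC50 was calculated. The top dose was 1e-5 M for most drugs; Bortezomib went to 2e-5 M and Sirolimus and 17-AAG to 2e-6 M[…].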

[5] = compound: CC(=O)O[C@H]1C(=O)[C@@]2(C)[C@H]([C@H](OC(=O)c3ccccc3)[C@]3(O)C[C@H](OC(=O)[C@H](O)[C@@H](NC(=O)c4ccccc4)c4ccccc4)C(C)=C1C3(C)C)[C@]1(OC(C)=O)CO[C@@H]1C[C@@H]2O [Paclitaxel]
Procedure: as §2

[6] = compound: CNC(=O)c1cc(Oc2ccc(NC(=O)Nc3ccc(Cl)c(C(F)(F)F)c3)cc2)ccn1 [Sorafenib]
Procedure: as §2

[7] = compound: Nc1ncn([C@H]2C[C@H](O)[C@@H](CO)O2)c(=O)n1 [Decitabine]
Procedure: as §2

[8] = compound: C#Cc1cccc(Nc2ncnc3cc(OCCOC)c(OCCOC)cc23)c1 [Erlotinib]
Procedure: as §2

[9] = compound: Nc1ncn([C@@H]2O[C@H](CO)[C@@H](O)[C@H]2O)c(=O)n1 [Azacitidine]
Procedure: as §2

[10] = compound: CC(C)(C)C[C@H]1N[C@@H](C(=O)NCC[C@H](O)CO)[C@H](c2cccc(Cl)c2)[C@@]12C(=O)Nc1cc(Cl)c(F)cc12 [MI-219]
Procedure: as §2

[11] = compound: CC/C(=C(\c1ccccc1)c1ccc(OCCN(C)C)cc1)c1ccccc1 [Tamoxifen]
Procedure: as §2

[12] = compound: O=C(CCCCCCC(=O)Nc1ccccc1)NO [Vorinostat]
Procedure: as §2

[13] = compound: O=c1[nH]cc(F)c(=O)[nH]1 [5-Fluorouracil]
Procedure: as §2

[14] = compound: c1ccc2c(CCNc3ccc(Nc4ccncc4)cc3)c[nH]c2c1 [Serdemetan]
Procedure: as §2

[15] = compound: COc1cc2/c(=N/c3ccc(Br)cc3F)nc[nH]c2cc1OCC1CCN(C)CC1 [Vandetanib]
Procedure: as §2

[16] = compound: O=C1c2c(O)ccc(O)c2C(=O)c2c(NCCNCCO)ccc(NCCNCCO)c21 [Mitoxantrone]
Procedure: as §2

[17] = compound: Cc1cc2c(F)c(Oc3ncnn4cc(OC[C@@H](C)O)c(C)c34)ccc2[nH]1 [Brivanib]
Procedure: as §2

[18] = compound: CC(=O)O[C@@]12CO[C@@H]1C[C@H](O)[C@@]1(C)C(=O)[C@H](O)C3=C(C)[C@@H](OC(=O)[C@H](O)[C@@H](NC(=O)OC(C)(C)C)c4ccccc4)C[C@@](O)([C@@H](OC(=O)c4ccccc4)[C@H]21)C3(C)C [Docetaxel]
Procedure: as §2

[19] = compound: COc1ccc(C2=N[C@@H](c3ccc(Cl)cc3)[C@@H](c3ccc(Cl)cc3)N2C(=O)N2CCNC(=O)C2)c(OC(C)C)c1 [Nutlin-3]
Procedure: as §2

[20] = compound: Cc1[nH]c2ccccc2c1CCNCc1ccc(/C=C/C(=O)NO)cc1 [Panobinostat]
Procedure: as §2

[21] = compound: COc1cc2ncnc(Nc3ccc(F)c(Cl)c3)c2cc1OCCCN1CCOCC1 [Gefitinib]
Procedure: as §2

[22] = compound: O=C(/C=C/c1cccc(S(=O)(=O)Nc2ccccc2)c1)NO [Belinostat]
Procedure: as §2

[23] = compound: CN(Cc1cnc2nc(N)nc(N)c2n1)c1ccc(C(=O)N[C@@H](CCC(=O)O)C(=O)O)cc1 [Methotrexate]
Procedure: as §2

[24] = compound: CCN(CC)CCNC(=O)c1c(C)[nH]c(/C=C2\C(=O)Nc3ccc(F)cc32)c1C [Sunitinib]
Procedure: as §2

[25] = compound: Cc1nc(Nc2ncc(C(=O)Nc3c(C)cccc3Cl)s2)cc(N2CCN(CCO)CC2)n1 [Dasatinib]
Procedure: as §2

[26] = compound: CS(=O)(=O)CCNCc1ccc(-c2ccc3ncnc(Nc4ccc(OCc5cccc(F)c5)c(Cl)c4)c3c2)o1 [Lapatinib]
Procedure: as §2

[27] = compound: COc1cccc2c1C(=O)c1c(O)c3c(c(O)c1C2=O)C[C@@](O)(C(=O)CO)C[C@@H]3O[C@H]1C[C@H](N)[C@H](O)[C@H](C)O1 [Doxorubicin]
Procedure: as §2

[28] = compound: N.N.[Cl][Pt][Cl] [Cisplatin]
Procedure: as §2

Test System	IC50 (SRB growth assay) [1] [nM]	IC50 (SRB growth assay) [2] [nM]	IC50 (SRB growth assay) [3] [pM]	IC50 (SRB growth assay) [4] [nM]	IC50 (SRB growth assay) [5] [nM]	IC50 (SRB growth assay) [6] [µM]	IC50 (SRB growth assay) [7] [nM]	IC50 (SRB growth assay) [8] [µM]	IC50 (SRB growth assay) [9] [µM]	IC50 (SRB growth assay) [10] [µM]	IC50 (SRB growth assay) [11] [µM]	IC50 (SRB growth assay) [12] [nM]	IC50 (SRB growth assay) [13] [µM]	IC50 (SRB growth assay) [14] [nM]	IC50 (SRB growth assay) [15] [µM]	IC50 (SRB growth assay) [16] [nM]	IC50 (SRB growth assay) [17] [µM]	IC50 (SRB growth assay) [18] [pM]	IC50 (SRB growth assay) [19] [µM]	IC50 (SRB growth assay) [20] [nM]	IC50 (SRB growth assay) [21] [µM]	IC50 (SRB growth assay) [22] [nM]	IC50 (SRB growth assay) [23] [nM]	IC50 (SRB growth assay) [24] [µM]	IC50 (SRB growth assay) [25] [nM]	IC50 (SRB growth assay) [26] [µM]	IC50 (SRB growth assay) [27] [nM]	IC50 (SRB growth assay) [28] [µM]
SKBR 7	74.1	24.6	886	7.17	1.07	2.4	2510	> 10	> 10	3.2	8.32	918	1.58	798	7.76	3.02	> 10	338	7.53	15.9	> 10	470	11.1	5.35	> 10000	2.51	–	–
SUM 149 PT	17.7	5.35	10700	6.79	1.31	5.59	81	0.766	> 10	> 10	5.21	515	7.76	608	0.877	1	> 10	226	> 10	8.96	2.86	171	10.6	3.43	70.6	0.081	–	–
SUM 159 PT	4.73	3.27	288	8.78	2.95	3.73	46.7	5.26	> 10	> 10	6.36	475	1.68	547	5.26	1.24	> 10	710	> 10	8.19	> 10	213	2.36	1.96	4060	0.0467	–	–
SUM 185 PE	8.53	8.04	74.7	5.45	4.07	2.53	> 10000	9.48	> 10	> 10	5.38	891	> 10	1140	2.28	7.18	4.53	2170	> 10	8.38	> 10	352	> 10000	1.04	> 10000	> 10	–	–
SUM 190 PT	79.5	6.51	548	72.4	1.91	2.06	> 10000	5.25	> 10	> 10	8.04	4730	> 10	871	4.54	20.8	> 10	883	> 10	78	> 10	4610	> 10000	3.87	223	> 10	–	–
SUM 229 PE	19.8	5.42	201	10.6	1.46	5.64	27.2	7.63	> 10	> 10	4.17	1820	2.96	292	1.87	6.3	> 10	539	> 10	25.1	7.56	1000	25.7	3.32	387	0.0272	–	–
SUM 1315 MO2	55.1	6.55	917	29.6	3.29	5.57	–	> 10	3.6	> 10	> 10	1190	> 10	1190	2.59	2.7	7.2	1540	> 10	31.7	> 10	703	138	4.28	53.7	6.72	17.5	> 10
UACC 893	18.2	3.92	72	4.25	1.95	4.46	> 10000	1.49	> 10	> 10	5.5	487	8.2	2870	4.36	4.1	> 10	701	> 10	5.26	1.71	134	164	2.3	6910	> 10	–	–
